Data published in a melting point compilation (Tetko et al.; mined from patent text by program, amines drawn as free bases though some values may be those of a salt).

Compound | melting point [°C]
O=C(O)Cn1c(=O)c(-c2ccccc2Cl)cc2cnc(NC3C4CN(Cc5ccccc5)CC43)nc21 (centres undefined) | 159 to 163
CCOC(=O)/C=C/c1cn(Cc2cc(OCc3ccccc3)cc(OCc3ccccc3)c2)cc1-c1ccccc1 | 98 to 99
CC(NC(=O)CCc1ccc(C(C)(C)C)cc1)c1ccc(NS(C)(=O)=O)c(F)c1 (centres undefined) | 152 to 154
Cc1ccc(NC(=O)NCc2ccc3c(c2)CN(C2CCC(=O)NC2=O)C3=O)cc1 (centres undefined) | 267 to 269
O=S(=O)(CCCCCOc1ccc(C2=C(c3ccccc3)CCCc3cc(O)ccc32)cc1)CCCC(F)(F)C(F)(F)F | 176 to 178
CCNC(=O)n1nc(Oc2cc(OCC)ccc2[N+](=O)[O-])cc1C | 73 to 75
CCOC(=O)c1ccc(N)cc1O | 113 to 115
CC1(C)CC(=O)NC2CCCCC2N1CCO (centres undefined) | 154 to 156
CCCc1ccc(S(=O)(=O)Nc2ccc3snc(NC(C)=O)c3c2)cc1 | 254 to 255
CCOc1c(C(=O)O)oc2c3ccccc3n(-c3ccccc3)c12 | 146 to 147
Cc1cnc2c(cc(C(N)=O)c3nncc32)c(-c2ccccc2F)n1 | 323 to 324
CCOC(=O)c1c(Nc2ccccc2OC)n[nH]c1C | 162 to 172
N#CNC(=NCCN1CCC(C(=O)c2ccc(F)cc2)CC1)Oc1ccccc1 | 134 to 136
CSc1cnn(C(C)(C)C)c(=O)c1C | 115 to 116
CCOC(=O)CCc1cnc2c(NC(=O)c3c(Cl)cccc3Cl)cccc2c1 | 110 to 111
O=C(c1ccc(F)c(F)c1)N1CCC[C@H](c2nc(-c3ccccn3)no2)C1 | 135 to 137
C=C1C(c2ccccc2)=C(c2ccc(S(C)(=O)=O)cc2)C1(Cl)Cl | 124 to 126
Cc1[nH]c(=O)c(C#N)cc1-c1ccc2nccn2c1 | > 300
O=C(Cc1ccc(OCc2cccs2)cc1)NC1(C(=O)O)Cc2ccc(-c3ccc(Cl)cc3)cc2C1 (centres undefined) | 201
Cc1cccc2c1nc(COc1ccc(Cl)cc1)n2CCC(Cc1ccccc1)C(=O)NCCCN1CCCCC1 (centres undefined) | 91 to 93

Compound | melting point [°C]
O=C(OCC1OC(OC(=O)c2ccccc2)C(F)C1OC(=O)c1ccccc1)c1ccccc1 (centres undefined) | 77 to 78
CCCn1cc2c(C3C(=O)Nc4ccc(C)cc43)nc(Cl)nc2n1 (centres undefined) | 275 to 280
COCC#Cc1ncn2c1CN(C)C(=O)c1c(Cl)cccc1-2 | 154 to 156
CCCCNc1n[nH]c2c1c(=O)n(CCC)c1ccccc21 | 169 to 172
CN1CCN(c2cc(Cl)cc3c2c(=O)n(Cc2cccc(O)c2)c(=O)n3Cc2ccccc2)CC1 | 234 to 236
N#CCc1cc(C(=O)O)cs1 | 154 to 159
CN(C)C=Nc1sc(C=O)c(Br)c1C#N | 220
CCOC(=O)C1(CS(=O)(=O)c2ccc(OC)cc2)CO1 (centres undefined) | 77 to 79
CN(C)Cc1ccc(C=CC(=O)N2CCc3c([nH]c4ccccc34)C2c2ccc3c(c2)CCO3)cn1 (centres undefined) | 163
CS(=O)c1ccc(C2=C(c3ccc(F)cc3)C(=O)C(C)(C)O2)cc1 (centres undefined) | 134 to 136
CC(C)(C)[PH](=O)Cc1ccccc1 (centres undefined) | 80 to 82
O=C(C#Cc1ccc(CN2CCCCC2)cc1)Nc1ccc(-c2ccc(Cl)cc2)cc1 | 180
CCc1nn2c(-c3ccccc3)ccnc2c1C#N | 132 to 134
CCN(CC)c1ccc(Cn2nc(-c3ccccc3O)nc2-c2ccccc2O)cc1 | 125 to 127
O=C(CCc1c(O)c2ccccc2oc1=O)c1ccccc1 | 149 to 151
CN1C(=O)C(c2ccc(OC(F)F)cc2)(C2CCCCC2)N=C1N (centres undefined) | 178 to 180
COc1ccc(C(=O)Nc2ccccc2CC2CCCCN2)cc1 (centres undefined) | 108 to 109
Cc1cccc(NC(=O)CN2C(=O)C3(COc4cc5c(cc43)CCO5)c3ccccc32)c1C (centres undefined) | 251 to 253
CC1(C)CC(N(C=O)CCCCCCN(C=O)C2CC(C)(C)NC(C)(C)C2)CC(C)(C)N1 | 155
